According to patent US10588316B2 (priority 2015, dated 2020):
“And” between values parts separate entries of the source, which are not always exact repeats. Identical values can stand only once. Like-named read-outs stand apart in the source and are kept apart here.

What was measured:
leaf rust fungus = tested on: leaf rust fungus; parameters: species or system wheat; settings: in vivo
wheat scab [1] = type: in vivo
rust [2] = tested on: rust; parameters: species or system barley; settings: in vivo
wheat scab [3] = type: in vivo; remark: listed apart in the source
powdery mildew fungus = tested on: powdery mildew fungus; parameters: species or system wheat; settings: in vivo
wheat scab [4] = type: in vivo; remark: listed apart in the source
Fusarium graminearum = test: microbe, parasite or virus in culture; type: cell-based; settings: for Average Fungal Colony Diameter F.g: sensitive strains
[5] = tested on: Fusarium graminearum and Fusarium asiaticum; test: organism not typed; type: cell-based; settings: read-out: inhibitory effect on the growth of the two types of Fusaria
rust [6] = type: in vivo, wheat; settings: in vivo
powdery mildew [7] = type: in vivo, wheat; settings: in vivo
rust [8] = type: in vivo, wheat; settings: in vivo; remark: listed apart in the source
[9] = type: in vivo, wheat; settings: in vivo
leaf blight [10] = type: in vivo, wheat; settings: in vivo
Tri5 gene = type: cell-based, Fusarium asiaticum
leaf blight [11] = type: in vivo, wheat; settings: in vivo; remark: listed apart in the source
wheat scab [12] = type: in vivo; remark: listed apart in the source
[13] = type: in vivo, wheat; settings: in vivo; remark: listed apart in the source
powdery mildew [14] = type: in vivo, wheat; settings: in vivo; remark: listed apart in the source
powdery mildew [15] = type: in vivo, wheat; settings: in vivo; remark: listed apart in the source
leaf blight [16] = type: in vivo, wheat; settings: in vivo; remark: listed apart in the source
[17] = tested on: carbendazim-resistant Fusarium asiaticum; test: microbe, parasite or virus in culture; type: cell-based; settings: for inhibition at 1 µg/mL / inhibition at 10 µg/mL / inhibition at 100 µg/mL / inhibition at 1000 µg/mL / inhibition at 10000 µg/mL: Fusarium asiaticum, read-out: DON Biosynthesis Inhibition Rate
rust [18] = tested on: rust; parameters: species or system wheat; settings: in vivo
wheat scab [19] = type: in vivo; settings: Preparation 100 (mL/mu); Jinggangmycin 20, Tebuconazole 0 g ai. agent/mu
rust [20] = type: in vivo, wheat; settings: in vivo; remark: listed apart in the source
Fusarium asiaticum = test: microbe, parasite or virus in culture; type: cell-based
leaf blight [21] = tested on: leaf blight; parameters: species or system wheat; settings: in vivo
wheat scab [22] = type: in vivo; settings: Preparation 100 g/mu; Jinggangmycin 20, Tebuconazole 0 g ai. agent/mu
rust [23] = type: in vivo, wheat; settings: in vivo; remark: listed apart in the source
powdery mildew [24] = type: in vivo, wheat; settings: in vivo; remark: listed apart in the source
powdery mildew [25] = type: in vivo, wheat; settings: in vivo; remark: listed apart in the source

## OCC1=CC(N[C@H]2C[C@H](CO)[C@@H](OC3O[C@H](CO)[C@@H](O)[C@H](O)[C@H]3O)C(O)[C@H]2O)[C@H](O)[C@@H](O)C1O (stereo partly shown) [Jinggangmycin, jinggangmycin A]
Leaf rust fungus
  Incidence Prevention Effect % Rust: 0% and 4.5%
Wheat scab [1]; Jinggangmycin 6 g ai. agent/mu
  Disease Index Prevention Effect % Head Blight: 0%
Wheat scab [1]; Jinggangmycin 9 g ai. agent/mu
  Disease Index Prevention Effect % Head Blight: 17.6%
Wheat scab [1]; Jinggangmycin 15 g ai. agent/mu
  Disease Index Prevention Effect % Head Blight: 28.3%
Wheat scab [1]; Jinggangmycin 21 g ai. agent/mu
  Disease Index Prevention Effect % Head Blight: 35.4%
Rust [2]
  Disease Index Prevention Effect % Rust: 0%
Wheat scab [3]; Preparation 15 g/mu, Jinggangmycin 3 g ai. agent/mu
  Disease Index Prevention Effect % Head Blight: 0%
Wheat scab [3]; Preparation 37.5 g/mu, Jinggangmycin 7.5 g ai. agent/mu
  Disease Index Prevention Effect % Head Blight: 24.2%
Wheat scab [3]; Preparation 50 g/mu, Jinggangmycin 10 g ai. agent/mu
  Disease Index Prevention Effect % Head Blight: 32.4%
Powdery mildew fungus
  Incidence Prevention Effect % Powdery Mildew: 0% and 6.5%
Wheat scab [4]; Preparation 30 g/mu, Jinggangmycin 6 g ai. agent/mu
  Disease Index Prevention Effect % Head Blight: 7.4%
Wheat scab [4]; Preparation 45 g/mu, Jinggangmycin 9 g ai. agent/mu
  Disease Index Prevention Effect % Head Blight: 9.4%
Wheat scab [4]; Preparation 60 g/mu, Jinggangmycin 12 g ai. agent/mu
  Disease Index Prevention Effect % Head Blight: 10.2%
Wheat scab [4]; Preparation 75 g/mu, Jinggangmycin 15 g ai. agent/mu
  Disease Index Prevention Effect % Head Blight: 34.2%
Fusarium graminearum; Fusarium graminearum, read-out: Growth Inhibition Rate F.g
  inhibition at 50 µg/mL: 6.6%
Fusarium graminearum; Jinggangmycin A 0.1 μg/mL
  Average Fungal Colony Diameter F.g: 76.3 mm
Fusarium graminearum; Jinggangmycin A 1.0 μg/mL
  Average Fungal Colony Diameter F.g: 76.2 mm
Fusarium graminearum; Jinggangmycin A 10.0 μg/mL
  Average Fungal Colony Diameter F.g: 75.4 mm
Fusarium graminearum; Jinggangmycin A 50.0 μg/mL
  Average Fungal Colony Diameter F.g: 70.3 mm
[5]
  inhibition at 50 µg/mL: 6.5 to 7.8%
Rust [6]
  Disease Index Prevention Effect % Rust: 6.5%
Powdery mildew [7]
  Disease Index Prevention Effect % Powdery Mildew: 10.6%
Rust [8]
  Disease Index Prevention Effect % Rust: 8.9% and 0%
[9]
  Thousand Kernel Weight: 37.5 g and 38.6 g and 37.6 g
Leaf blight [10]
  Disease Index Prevention Effect % Leaf Blight: 7.8%
Tri5 gene
  Rate of Inhibition on Relative Expression Level of Tri5 Gene: 59% and 66% and 84% and 87% and 90%
Leaf blight [11]
  Disease Index Prevention Effect % Leaf Blight: 8.6% and 8.8% and 5.8%
Wheat scab [12]; Jinggangmycin 0.5 g ai. agent/mu
  Disease Index Prevention Effect % Head Blight: 0.0%
Wheat scab [12]; Jinggangmycin 1.0 g ai. agent/mu
  Disease Index Prevention Effect % Head Blight: 0.0%
Wheat scab [12]; Jinggangmycin 1.3 g ai. agent/mu
  Disease Index Prevention Effect % Head Blight: 0.0%
Wheat scab [12]; Jinggangmycin 2.5 g ai. agent/mu
  Disease Index Prevention Effect % Head Blight: 0.0%
Wheat scab [12]; Jinggangmycin 5.0 g ai. agent/mu
  Disease Index Prevention Effect % Head Blight: 0.0%
Wheat scab [12]; Jinggangmycin 8.0 g ai. agent/mu
  Disease Index Prevention Effect % Head Blight: 17.9%
Wheat scab [12]; Jinggangmycin 14.0 g ai. agent/mu
  Disease Index Prevention Effect % Head Blight: 23.7%
Wheat scab [12]; Jinggangmycin 16.0 g ai. agent/mu
  Disease Index Prevention Effect % Head Blight: 27.8%
Wheat scab [12]; Jinggangmycin 28.0 g ai. agent/mu
  Disease Index Prevention Effect % Head Blight: 29.6%
[13]
  Thousand Kernel Weight: 38.5 g and 40.1 g and 37.8 g and 41.5 g
Powdery mildew [14]
  Disease Index Prevention Effect % Powdery Mildew: 8.6% and 6.6% and 3% and 1.8%
Powdery mildew [15]
  Disease Index Prevention Effect % Powdery Mildew: 10.6%
Leaf blight [16]
  Disease Index Prevention Effect % Leaf Blight: 7.8%
[17]; 168 h
  inhibition at 1 µg/mL: 28.6%
  inhibition at 10 µg/mL: 35.5%
  inhibition at 100 µg/mL: 45.2%
  inhibition at 1000 µg/mL: 65.5%
  inhibition at 10000 µg/mL: 75.9%
[17]; 336 h
  inhibition at 1 µg/mL: 1.7%
  inhibition at 10 µg/mL: 7.87%
  inhibition at 100 µg/mL: 29.9%
  inhibition at 1000 µg/mL: 57%
  inhibition at 10000 µg/mL: 75.4%
[17]; Jinggangmycin 1 μg/ml, 7 days of culture
  Toxin Production Capability of Hyphae: 62.82 μgDON/g by dry weight of hyphae
[17]; Jinggangmycin 1 μg/ml, 14 days of culture
  Toxin Production Capability of Hyphae: 51.43 μgDON/g by dry weight of hyphae
[17]; Jinggangmycin 10 μg/ml, 7 days of culture
  Toxin Production Capability of Hyphae: 56.76 μgDON/g by dry weight of hyphae
[17]; Jinggangmycin 10 μg/ml, 14 days of culture
  Toxin Production Capability of Hyphae: 48.20 μgDON/g by dry weight of hyphae
[17]; Jinggangmycin 100 μg/ml, 7 days of culture
  Toxin Production Capability of Hyphae: 48.23 μgDON/g by dry weight of hyphae
[17]; Jinggangmycin 100 μg/ml, 14 days of culture
  Toxin Production Capability of Hyphae: 36.68 μgDON/g by dry weight of hyphae
[17]; Jinggangmycin 1000 μg/ml, 7 days of culture
  Toxin Production Capability of Hyphae: 30.35 μgDON/g by dry weight of hyphae
[17]; Jinggangmycin 1000 μg/ml, 14 days of culture
  Toxin Production Capability of Hyphae: 22.52 μgDON/g by dry weight of hyphae
[17]; Jinggangmycin 10000 μg/ml, 7 days of culture
  Toxin Production Capability of Hyphae: 21.23 μgDON/g by dry weight of hyphae
[17]; Jinggangmycin 10000 μg/ml, 14 days of culture
  Toxin Production Capability of Hyphae: 12.85 μgDON/g by dry weight of hyphae
Rust [18]
  Disease Index Prevention Effect % Rust: 5.1% and 3.6% and 0%
Wheat scab [19]
  Disease Index Prevention Effect % Head Blight: 34.2%
Rust [20]
  Disease Index Prevention Effect % Rust: 6.8% and 6.5% and 0%
Fusarium asiaticum
  Average Fungal Colony Diameter F.a: 76.3 mm and 75.6 mm and 69.4 mm
Fusarium asiaticum; Fusarium asiaticum, read-out: Growth Inhibition Rate F.a
  inhibition at 50 µg/mL: 7.8%
Leaf blight [21]
  Disease Index Prevention Effect % Leaf Blight: 8.5% and 7.9% and 0%
Wheat scab [22]
  Disease Index Prevention Effect % Head Blight: 40.2%
Rust [23]
  Disease Index Prevention Effect % Rust: 6.5%
Powdery mildew [24]
  Disease Index Prevention Effect % Powdery Mildew: 8.5% and 0%
Powdery mildew [25]
  Disease Index Prevention Effect % Powdery Mildew: 7.3% and 4.4% and 4.5% and 0%
